Consider 10 molecules from paper PMC8597634, “4-Iminooxazolidin-2-One as a Bioisostere of Cyanohydrin Suppresses EV71 Proliferation by Targeting 3C^pro” (Microbiology Spectrum, 2021).

Read-outs that look alike come from different tables or passages of the source.

For series [1] the following is noted: cited from earlier work.
Series [2] relates to HRV. The arrangement: method as in PMID 20066739, PMID 21536800, PMID 23295352, PMID 23633597. The conditions noted are these: cited from earlier work.
The subject of series [3] is EV71. The conditions noted are these: cited from earlier work.
Series [4] addresses T1, EV71 3C^pro (Human enterovirus 71, UniProt Q66478).
T1 construct: The EV71 3C^pro plasmid was amplified and linked into a pET-28a vector; 6xHis; made in house; host or cells: Escherichia coli
The experiment in a line: Hydrolytic activity inhibition of EV71 3C^pro on precursor 3BC (SDS-PAGE). The class given is biochemical. The settings on record: 100 μM 3C^pro, molar ratio 1:5, GST-3BC-C147A 50 μM. As for the experimental part: To ascertain whether FOPMC and FIOMC inactivated EV71 3C^pro to hydrolyze the precursor 3BC, the fusion protein GST-3BC with a catalytic central residue C147A mutation was expressed. A 100 μM concentration of EV71 3C^pro and FOPMC/FIOMC (at a molar ratio of 1:5) was incubated at 30°C for 2 h. GST-3BC (50 μM) protein was added for another 4 h, and the reagents were analyzed using SDS-PAGE.

The conditions of series [5]: cited from earlier work. This is another data set of the same source.
Series [6] has as its system EV71. Put plainly: Selection of resistant virus by continuous culture of EV71. Format: cell-based. The settings on record: EV71 cultured for 20 rounds, sequence analyses.
Series [7] has as its system EV71-A. Put plainly: Antiviral activity by qRT-PCR in RD cells, EV71-A. Format: cell-based. The settings on record: Enterovirus A. The procedure:
(§1) The viral genome replication inhibition in host cells after treatment with FOPMC and FIOMC was monitored by EV71 genotype C Fuyang virus. Briefly, RD cells were cultured at 1.5 × 10^5 per well at 37°C for 24 h and then incubated with gradient-diluted FOPMC, FIOMC, and virus. The intracellular RNAs were extracted using TRIzol (TransGen, China) after 24 hpi. The real-time quantitative PCR (qRT-PCR) assays were performed with a SYBR RT-PCR kit (Bio-Rad, USA) for the EV71 5′ […] region (UTR) and the host GAPDH. The transcript copies of EV71 5′ UTR and GAPDH were calculated using the threshold cycle (ΔΔCT) method ([35]).
(§2) To evaluate the antiviral effect of FOPMC and FIOMC on various viral strains, we measured the EC50s of these two inhibitors on five virus strains. RD cells were treated with FOPMC/FIOMC (0.003 to 50 μM) and each viral strain for 2 h. The antiviral activity was conducted by qRT-PCR according to the method described above.

Series [8] relates to EV71-luciferase virus. The experiment in a line: EC50 with EV71-luciferase virus on RD cells. The class given is cell-based. The conditions noted are these: Enterovirus A, 24 h. The procedure: (§3) One hundred microliters each of RD (3 × 10^5 cells/ml), VeroE6 (3 × 10^5 cells/ml), and HEK-293T cells (2 × 10^5 cells/ml) was cultured overnight. Each 96-well plate of cells was treated with EV71-luciferase virus and diluted FOPMC/FIOMC (diluted from 3 nM to 20 μM) for 24 h. The luciferase signals were tested using the firefly luciferase kit (Promega, USA). All of the EC50s were profiled by Graph Pad Prism 7.0.

For series [9], the system named is EV71 genotype C Fuyang virus. Put plainly: qRT-PCR of viral genome replication, EV71 Fuyang virus in RD cells. The class given is cell-based. The conditions noted are these: Enterovirus A, 24 hpi. The procedure: as §1
The test system of series [10] is EV71 VP1. The experiment in a line: Expression of EV71 VP1 in RD cells. Format: cell-based. The conditions noted are these: GAPDH invariable.
Series [11] has as its system EV71-luciferase virus. Put plainly: EC50 with EV71-luciferase virus on HEK-293T cells. The class given is cell-based. The conditions noted are these: Enterovirus A, EV71, HEK-293T, 24 h. The procedure:
as §3

Series [12] concerns EV71-B. Put plainly: Antiviral activity by qRT-PCR in RD cells, EV71-B. Format: cell-based. The settings on record: Enterovirus A. As for the experimental part: as §1, §2
In general terms: Real-time PCR tracks product formation cycle by cycle.

Series [13] relates to EV71-C. Put plainly: Antiviral activity by qRT-PCR in RD cells, EV71-C. The class given is cell-based. The settings on record: Enterovirus A. As for the experimental part:
as §1, §2

The test system of series [14] is EV71-luciferase virus. The experiment in a line: Time-of-addition assay with EV71-luciferase virus in RD cells. The class given is cell-based. The settings on record: −6 to 10 hpi, FOPMC 5 μM, FIOMC 5 μM, GPP3 1 μM.
Series [15] deals with CVB3. The experiment in a line: Antiviral activity by qRT-PCR in RD cells, CVB3. The class given is cell-based, coxsackievirus B3. The settings on record: Enterovirus B. As for the experimental part:
as §1, §2

Series [16] relates to CVA16. Put plainly: Antiviral activity by qRT-PCR in RD cells, CVA16. The class given is cell-based, coxsackievirus A16. The conditions noted are these: Enterovirus A. The procedure:
as §1, §2

For series [17], the system named is EV71-GFP. The experiment in a line: Phenotype assay with EV71-GFP reporter virus in RD cells. Format: cell-based. The settings on record: 0.16 to 20 μM, 24 h. The procedure:
RD cells (3 × 10^4 per well) were cultured in 96-well plates overnight. Diluted compounds (0.16 to 20 μM) and EV71-GFP reporter virus were added to RD cells. After 24 hpi, the GFP was monitored using confocal microscopy (Olympus, Japan).

Series [18] deals with VeroE6 cells. Put plainly: Cytotoxicity (CellTiter-Glo) on VeroE6 cells. Format: cell-based. The conditions noted are these: even at 200 μM, 48 h. The procedure: (§4) Determination of the cytotoxicity of FOPMC and FIOMC was performed on three cell lines using a CellTiter-Glo kit (Promega, USA). Briefly, RD, VeroE6, and HEK-293T cells were treated with gradient dilutions of […] (from 0.78 to 200 μM) for 48 h. CellTiter-Glo reagents were applied to evaluate the cells' viability by a microplate reader.

Series [19] has as its target T1, EV71 3C^pro. Put plainly: Inhibitor constant (Ki) enzymatic FRET assay. Format: biochemical. The conditions noted are these: 0.5 μM EV71 3C^pro, 100 μM peptide, 2 h. The procedure:
The inhibitor constants (Kis) were determined by fluorescence resonance energy transfer (FRET) using NMA-IEALFQGPPK(DNP)FR peptide. The assays were performed with 50 mM Tris-HCl–150 mM NaCl (pH 7.0) with 0.5 μM EV71 3C^pro and gradient-diluted FOPMC/FIOMC. Subsequently, 100 μM each peptide was hydrolyzed for 2 h. The fluorescence signals were monitored at a microplate reader (Perkin Elmer, USA).

The test system of series [20] is five viral strains. The experiment in a line: Antiviral activity on five viral strains (summary in discussion). The conditions noted are these: read-out: EC50s depending on the specific virus. The class given is cell-based. The procedure:
as §2

For series [21], the system named is pEV71-replicon RNA. Put plainly: pEV71-replicon RNA assay in RD cells. The settings on record: RD cells transfected with pEV71-replicon RNA, 5 μM. The class given is cell-based, EV71. The procedure: RD cells (3 × 10^4 per well) were treated with FOPMC (5 μM), FIOMC (5 μM), GPP3 (1 μM), NK-1.8k (2 μM), and EV71-luciferase virus, respectively. Another plate of RD cells was treated with the same concentrations of the four inhibitors and transfected with pEV71-replicon RNA. After 24 hpi, the luciferase activity was determined using Bright-Glo luciferase substrate (Promega, USA).
For orientation: Replicon systems follow genome replication, usually without infectious particles.

Series [22] has as its system RD cells. The experiment in a line: Cytotoxicity (CellTiter-Glo) on RD cells. The conditions noted are these: even at 200 μM, 48 h. Format: cell-based, human. As for the experimental part: as §4
Series [23] concerns EV71-luciferase virus. Put plainly: EC50 with EV71-luciferase virus on VeroE6 cells. Format: cell-based. The conditions noted are these: Enterovirus A, EV71, Vero C1008, 24 h. As for the experimental part: as §3
In series [24] the test system is HEK-293T cells. Put plainly: Cytotoxicity (CellTiter-Glo) on HEK-293T cells. The class given is cell-based. The conditions noted are these: even at 200 μM, 48 h. The procedure: as §4
Series [25] relates to EV-D68. The arrangement: method as in PMID 25554786. The settings on record: cited from earlier work.

On to `Cc1cc(C(=O)NC(Cc2ccc(F)cc2)C(=O)NC(CC2CCCNC2=O)C(O)C#N)no1` [(R)-1, reference compound], for which the “half-life [t1/2] in human plasma” value in series [1] was 11 min.

As to `CCOC(=O)/C=C/[C@H](C[C@@H]1CCNC1=O)NC(=O)[C@@H](CC(=O)[C@@H](NC(=O)c1cc(C)on1)C(C)C)Cc1ccc(F)cc1` [AG7088], the figures for the EC50 in series [2] and in [3] (EV71) were 13 nM and 1670 nM, respectively.

On to `Cc1cc(C(=O)NC(Cc2ccc(F)cc2)C(=O)NC(CC2CCCNC2=O)C2OC(=O)N(C(C)C)C2=N)no1` (stereo not shown) [FIOMC], for which the “hydrolysis of 3BC by 3C^pro” value in series [4] is “distinctly restrained the hydrolysis”. The “half-life [t1/2] in human plasma” value in [1] is recorded as “exceed 120 min”. Moreover, in series [5], the “t1/2 in mouse plasma” value is reported as “exceed 120 min”. In addition, the “resistance mutation after continuous culture” value in series [6] was “no mutation of EV71 virus”. Also, the EC50 in [7] came to 96 ± 1 nM; in [8], 92 ± 3 nM; in series [9] it was 67 ± 1 nM; in series [11] it was 93 ± 7 nM; in [12], 102 ± 9 nM; in [13], 75 ± 3 nM. Further, the EC50 in series [15] was 80 ± 4 nM; in series [16], 125 ± 2 nM; in series [20], 80 to 125 nM; in series [23] it was 104 ± 8 nM. Further, the “expression of EV71 VP1” value in [10] is “inhibited”. Besides, the “inhibitory effect by time of addition” value in [14] is given as “valid inhibitory effects regardless of the time”. In addition, the “replication of EV71-GFP in phenotype screen” value in series [17] is “positive results”. In addition, the Cytotoxicity result in series [18], in series [22] and in [24] was “no apparent cytotoxic effect” throughout. The same molecule yielded a Ki in [19] of 33 ± 8 nM. Further, in series [21], the effect on replicon result is on record as “impacted the virus replication stage”.

With `CCCN1C(=N)C(C(CC2CCCNC2=O)NC(=O)C(Cc2ccc(F)cc2)NC(=O)c2cc(C)on2)OC1=O` (stereo not shown) [FOPMC], the “hydrolysis of 3BC by 3C^pro” value in series [4] is given as “distinctly restrained the hydrolysis”. Besides, the “half-life [t1/2] in human plasma” value in series [1] is “exceed 120 min”. The “t1/2 in mouse plasma” value in series [5] was “exceed 120 min”. Further, the “resistance mutation after continuous culture” value in series [6] is reported as “no mutation of EV71 virus”. Also, the EC50 stood at 115 ± 2 nM in [7]; 244 ± 12 nM in series [8]; 123 ± 4 nM in series [9]; 299 ± 28 nM in [11]; 135 ± 4 nM in series [12]; 128 ± 9 nM in series [13]. Also, the EC50 in [15] came to 210 ± 5 nM; in series [16], 217 ± 14 nM; in [23] it was 202 ± 15 nM. For the same molecule, the “expression of EV71 VP1” value in series [10] is “inhibited”. Further, the “inhibitory effect by time of addition” value in series [14] is recorded as “valid inhibitory effects regardless of the time”. In [17], the “replication of EV71-GFP in phenotype screen” value is on record as “positive results”. Also, the Cytotoxicity result in [18], in [22] and in series [24] was “no apparent cytotoxic effect” each time. The molecule also had a Ki in series [19] of 83 ± 1 nM. In series [21], the effect on replicon entry is recorded as “impacted the virus replication stage”.

`O=c1c(O)c(-c2ccc(O)c(O)c2)oc2cc(O)ccc12` [Fisetin]: the EC50 in [3] (anti-EV71 activity) was 85000 nM.

`CCON=Cc1ccc(OCCC(C)CCN2CCN(c3ccncc3)C2=O)cc1` (stereo not shown) [GPP3, reference compound]: the “inhibitory effect by time of addition” value in series [14] is listed as “dramatically decreased from 4 hpi”.

For `O=c1cc(-c2ccc(O)c(O)c2)oc2cc(O[C@@H]3O[C@H](CO)[C@@H](O)[C@H](O)[C@H]3O)cc(O)c12` [Luteoloside], the EC50 in series [3] (cytopathy caused by EV71 infection) was 430000 nM.

Turning to `Cc1cc(CCCOc2c(C)cc(-c3noc(C(F)(F)F)n3)cc2C)on1` [pleconaril], the EC50 in [25] was 430 nM.

For `O=c1c(O)c(-c2ccc(O)c(O)c2)oc2cc(O)cc(O)c12` [quercetin], the EC50 in series [3] (EV71) was 12100 nM.

Turning to `C[C@@H]1O[C@@H](OC[C@H]2O[C@@H](Oc3c(-c4ccc(O)c(O)c4)oc4cc(O)cc(O)c4c3=O)[C@H](O)[C@@H](O)[C@@H]2O)[C@H](O)[C@H](O)[C@H]1O` [rutin], in series [3] (anti-EV71 activity), the EC50 was 110000 nM.

As usually defined, the Ki is the equilibrium dissociation constant of an inhibitor or competing ligand from its target. Low values mean a stronger hold on the target, high ones a looser hold on the target.
